Active and inactive are the calls of the source. The rule behind the calls is not given here.

Assay [1] deals with Signal transducer and activator of transcription 3 (Homo sapiens) (UniProt P40763). The experiment in a line: Inhibition of STAT3 in human A2780 cells assessed as downregulation of cytoplasmic STAT3 phosphorylation at Tyr705 residue at 0.2 uM incubated for 24 hrs by Hoechst33342 staining based immunofluorescence assay. Format: cell-based.
Assay [2] has as its system A2780. The experiment in a line: Induction of cell cycle arrest in human A2780 cells assessed as reduction of CDK2 expression at 0.8 uM incubated for 24 hrs by flow cytometry (reference value: 92.5 %). Format: functional. More on the design: scale not given: the % may be the effect or the level left. A general note: Flow cytometry measures light scatter and fluorescence of single cells or particles in a stream.

Assay [3] concerns SK-OV-3. The experiment in a line: Induction of cell cycle arrest in human SK-OV-3 cells assessed as accumulation of cells at G2/M phase at 0.8 uM incubated for 24 hrs by BrdU staining based flow cytometry (reference value: 6.3 %). Format: functional. On the technique in general: Uptake of a labelled nucleoside into DNA is a usual measure of proliferation.
Assay [4] concerns the target Signal transducer and activator of transcription 3 (Homo sapiens) (UniProt P40763). The experiment in a line: Inhibition of STAT3 in human SK-OV-3 cells assessed as downregulation of total STAT3 expression incubated for 24 hrs by Western blotting analysis. Format: cell-based. For orientation: Immunoblotting shows a protein as a band on a membrane.
Assay [5] concerns A2780. The experiment in a line: Induction of cell cycle arrest in human A2780 cells assessed as accumulation of cells at S phase at 0.8 uM incubated for 24 hrs by BrdU staining based flow cytometry (reference value: 51.6 %). Format: functional.
The target of assay [6] is Signal transducer and activator of transcription 3 (Homo sapiens) (UniProt P40763). The experiment in a line: Inhibition of STAT3 in human SK-OV-3 cells assessed as downregulation of cytoplasmic STAT3 phosphorylation at Ser727 residue at 0.2 uM incubated for 24 hrs by Hoechst33342 staining based immunofluorescence assay. Format: cell-based.
Assay [7] relates to SK-OV-3. The experiment in a line: Inhibition of human SK-OV-3 cells spheroid formation assessed as reduction in spheroid number at 0.1 to 0.4 uM incubated for 10 days by inverted microscopic analysis. Format: functional, cell-based. The following applies: dose 0.1-0.4 µM, time 10.0 day.
Assay [8] can be described thus: Selectivity index, ratio of IC50 for cytotoxicity against human IOSE80 cells to IC50 for cytotoxicity against human SK-OV-3 cells.
For assay [9], the target named is Signal transducer and activator of transcription 3 (Homo sapiens) (UniProt P40763). The experiment in a line: Inhibition of STAT3 in human SK-OV-3 cells assessed as downregulation of STAT3 phosphorylation at Ser727 residue in nuclei at 0.2 uM incubated for 24 hrs by Hoechst33342 staining based immunofluorescence assay. Format: cell-based.
The test system of assay [10] is A2780. The experiment in a line: Inhibition of human A2780 cells spheroid formation assessed as reduction in spheroid size at 0.1 to 0.4 uM incubated for 10 days by inverted microscopic analysis. Format: functional, cell-based. As to conditions: dose 0.1-0.4 µM, time 10.0 day.
In the next assay the test system is Mitochondrial membrane. The experiment in a line: Induction of mitochondrial membrane potential loss in human A2780 cells at 0.4 uM incubated for 24 hrs by JC-1 staining based flow cytometry (reference value: 81 %).

Signal transducer and activator of transcription 3 (Homo sapiens), sequence (P40763 whole entry): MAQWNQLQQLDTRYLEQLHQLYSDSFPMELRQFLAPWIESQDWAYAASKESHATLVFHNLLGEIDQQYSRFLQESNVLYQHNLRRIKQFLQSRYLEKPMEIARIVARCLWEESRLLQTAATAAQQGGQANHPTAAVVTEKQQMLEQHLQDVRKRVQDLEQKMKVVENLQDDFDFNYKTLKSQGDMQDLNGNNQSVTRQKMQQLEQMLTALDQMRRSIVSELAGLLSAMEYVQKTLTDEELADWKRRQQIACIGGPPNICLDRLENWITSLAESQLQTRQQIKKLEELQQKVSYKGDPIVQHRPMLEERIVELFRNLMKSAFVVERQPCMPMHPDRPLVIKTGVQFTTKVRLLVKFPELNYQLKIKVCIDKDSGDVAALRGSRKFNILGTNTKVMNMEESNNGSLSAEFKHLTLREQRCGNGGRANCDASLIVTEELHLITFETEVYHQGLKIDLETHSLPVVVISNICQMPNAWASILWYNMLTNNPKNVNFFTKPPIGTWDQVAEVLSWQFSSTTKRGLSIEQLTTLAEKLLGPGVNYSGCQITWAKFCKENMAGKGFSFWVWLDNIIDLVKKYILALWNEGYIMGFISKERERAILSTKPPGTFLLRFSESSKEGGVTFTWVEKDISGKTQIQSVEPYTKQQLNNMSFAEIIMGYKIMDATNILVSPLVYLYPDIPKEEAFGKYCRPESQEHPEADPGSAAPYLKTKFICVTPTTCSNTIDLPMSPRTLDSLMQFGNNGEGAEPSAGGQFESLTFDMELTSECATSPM

On to `CC1=C(O)C(=O)C=C2C1=CC=C1[C@@]2(C)CC[C@@]2(C)[C@@H]3C[C@](C)(C(=O)N4CCNCC4)CC[C@]3(C)CC[C@]12C`, for which the results for the inhibition result in [1], in assay [4] and in assay [6] were “Active; Showed Mild Inhibition Activity”, “Dose-dependent-effect” and “Active; Showed Mild Inhibition Activity”, respectively. The Activity in the assay on A2780 [2] was 8.6%; with SK-OV-3 [3], 18.2%; in the assay with A2780 [5], 6.2%; with Mitochondrial membrane, 49.5%. The inhibition entry (in the assay with SK-OV-3 [7]; in assay [9]; in the assay on A2780 [10]) was “Active” each time. Moreover, in assay [8], the “Ratio IC50” value was 4.81.

For the origin of these results see ChEMBL document CHEMBL6083204, “Synthesis of a celastrol derivative as a cancer stem cell inhibitor through regulation of the STAT3 pathway for treatment of ovarian cancer” (RSC Med Chem, 2024).
